From ChEMBL document CHEMBL5137080, “Discovery of Novel 7-Hydroxy-5-oxo-4,5-dihydrothieno[3,2-b]pyridine-6-carboxamide Derivatives with Potent and Selective Antifungal Activity against Cryptococcus Species” (J Med Chem, 2022)
The source made the active and inactive calls. No cut-off for these calls is given here.

Key:
[1] = Cmax in Sprague-Dawley rat at 5 mg/kg,po by LC-MS/MS analysis; assay type: ADME, organism-based; parameters: dose 5 mg/kg, route po; conditions: in vivo
Cryptococcus gattii [2] = assay: Synergistic antifungal activity against Cryptococcus gattii WM179 assessed as fractional inhibitory concentration index incubated for 72 hrs in presence of Fluconazole by broth microdilution method; assay type: functional, Cryptococcus gattii species complex
Cryptococcus gattii [3] = assay: Antifungal activity against Cryptococcus gattii WM179 assessed as fungal growth inhibition incubated for 72 hrs in presence of Fluconazole by broth microdilution method; assay type: functional, Cryptococcus gattii species complex
[4] = Selectivity index, ratio of IC50 for human HUVEC to MIC for antifungal activity against Cryptococcus neoformans; assay type: toxicity; conditions: HUVEC cells, read-out: Selectivity Index
Pichia kudriavzevii = assay: Synergistic antifungal activity against Candida krusei ATCC2340 assessed as fractional inhibitory concentration index incubated for 48 hrs in presence of Fluconazole by broth microdilution method; assay type: functional
[5] = AUC (0 to infinitive) in Sprague-Dawley rat at 2 mg/kg,iv by LC-MS/MS analysis; assay type: ADME, organism-based; parameters: time infinity, dose 2 mg/kg, route iv; conditions: in vivo
[6] = target: Voltage-gated inwardly rectifying potassium channel KCNH2 (Homo sapiens, UniProt Q12809); assay: Inhibition of human […] potassium channel by automated patch clamp electrophysiology; assay type: toxicity
Voltage-gated inwardly rectifying potassium channel KCNH2, sequence (Q12809 whole entry): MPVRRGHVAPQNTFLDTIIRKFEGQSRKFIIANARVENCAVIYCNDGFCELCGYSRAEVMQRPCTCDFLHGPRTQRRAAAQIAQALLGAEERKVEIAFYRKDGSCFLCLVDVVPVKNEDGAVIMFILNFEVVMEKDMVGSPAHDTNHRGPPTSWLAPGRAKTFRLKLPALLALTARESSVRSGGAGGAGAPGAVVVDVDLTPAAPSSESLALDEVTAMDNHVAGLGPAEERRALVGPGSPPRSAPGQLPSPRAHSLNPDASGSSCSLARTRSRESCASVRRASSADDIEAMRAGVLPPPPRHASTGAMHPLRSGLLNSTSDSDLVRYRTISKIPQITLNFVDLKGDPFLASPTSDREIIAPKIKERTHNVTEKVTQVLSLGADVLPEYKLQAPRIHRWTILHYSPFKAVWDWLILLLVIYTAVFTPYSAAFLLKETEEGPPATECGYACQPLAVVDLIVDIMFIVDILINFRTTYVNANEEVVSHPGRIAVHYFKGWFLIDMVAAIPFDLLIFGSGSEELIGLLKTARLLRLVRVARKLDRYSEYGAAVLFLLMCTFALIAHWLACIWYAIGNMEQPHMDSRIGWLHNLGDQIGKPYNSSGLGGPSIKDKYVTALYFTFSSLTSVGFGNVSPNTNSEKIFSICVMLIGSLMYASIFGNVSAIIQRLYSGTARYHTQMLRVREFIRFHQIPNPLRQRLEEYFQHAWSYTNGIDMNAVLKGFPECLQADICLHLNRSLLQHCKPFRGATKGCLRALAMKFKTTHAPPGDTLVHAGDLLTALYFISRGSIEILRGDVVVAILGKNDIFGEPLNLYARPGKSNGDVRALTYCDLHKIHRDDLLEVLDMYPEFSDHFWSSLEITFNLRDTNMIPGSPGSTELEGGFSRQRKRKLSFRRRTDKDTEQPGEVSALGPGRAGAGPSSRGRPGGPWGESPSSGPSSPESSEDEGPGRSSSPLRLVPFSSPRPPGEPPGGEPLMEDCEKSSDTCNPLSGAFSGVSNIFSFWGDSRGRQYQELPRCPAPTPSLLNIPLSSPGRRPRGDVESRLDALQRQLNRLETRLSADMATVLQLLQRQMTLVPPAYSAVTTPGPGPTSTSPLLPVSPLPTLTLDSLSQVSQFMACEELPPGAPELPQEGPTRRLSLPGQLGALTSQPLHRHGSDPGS

Candida albicans [7] = assay: Synergistic antifungal activity against Candida albicans SC5314 assessed as fractional inhibitory concentration index incubated for 48 hrs in presence of Fluconazole by broth microdilution method; assay type: functional
Cryptococcus neoformans [8] = assay: Synergistic antifungal activity against Cryptococcus neoformans clinical isolate HN15 assessed as fractional inhibitory concentration index incubated for 72 hrs in presence of Fluconazole by broth microdilution method; assay type: functional
Nakaseomyces glabratus = assay: Antifungal activity against Candida glabrata ATCC1182 assessed as fungal growth inhibition incubated for 48 hrs in presence of Fluconazole by broth microdilution method; assay type: functional
[9] = Volume of distribution at steady state in Sprague-Dawley rat at 2 mg/kg,iv by LC-MS/MS analysis; assay type: ADME, organism-based; conditions: in vivo
[Candida] auris = Antifungal activity against Candida auris CBS 12372 assessed as fungal growth inhibition incubated for 48 hrs in presence of Fluconazole by broth microdilution method; assay type: functional; conditions: Candidozyma auris
[10] = MRT (0 to t) in Sprague-Dawley rat at 2 mg/kg,iv by LC-MS/MS analysis; assay type: ADME, organism-based; conditions: in vivo
Cryptococcus neoformans [11] = assay: Synergistic antifungal activity against Cryptococcus neoformans clinical isolate 445 assessed as fractional inhibitory concentration index incubated for 72 hrs in presence of Fluconazole by broth microdilution method; assay type: functional
Cryptococcus neoformans [12] = assay: Antifungal activity against Cryptococcus neoformans clinical isolate HN17 assessed as fungal growth inhibition incubated for 72 hrs in presence of Fluconazole by broth microdilution method; assay type: functional
Cryptococcus neoformans [13] = assay: Antifungal activity against Cryptococcus neoformans H99 assessed as reduction on fungal growth at 8 ug/ml incubated for 48 hrs by plate reader assay; assay type: functional, organism-based; conditions: dose 8.0 µg/ml
Cryptococcus neoformans [14] = assay: Antifungal activity against Cryptococcus neoformans H99 assessed as fungal growth inhibition incubated for 72 hrs in presence of Fluconazole by broth microdilution method; assay type: functional
[15] = Half life in Sprague-Dawley rat at 2 mg/kg,iv by LC-MS/MS analysis; assay type: ADME, organism-based; conditions: in vivo
[16] = Cytotoxicity against rabbit RBC assessed as cell growth inhibition incubated for 24 hrs by CCK-8 assay; assay type: toxicity, cell-based, Oryctolagus cuniculus, Erythrocyte; conditions: red blood cells
Cryptococcus neoformans [17] = assay: Antifungal activity against Cryptococcus neoformans H99 infected in Wax moth larvae assessed as survival rate at 10 mg/kg measured after 9 days in presence of Fluconazole by Kaplan-Meier method; assay type: functional; conditions: H99, 216 h, time 9 day
Cryptococcus neoformans [18] = assay: Synergistic antifungal activity against Cryptococcus neoformans clinical isolate HN2-40 assessed as fractional inhibitory concentration index incubated for 72 hrs in presence of Fluconazole by broth microdilution method; assay type: functional
Candida parapsilosis [19] = assay: Synergistic antifungal activity against Candida parapsilosis ATCC22019 assessed as fractional inhibitory concentration index incubated for 48 hrs in presence of Fluconazole by broth microdilution method; assay type: functional
Cryptococcus neoformans [20] = assay: Synergistic antifungal activity against Cryptococcus neoformans clinical isolate BJ3 assessed as fractional inhibitory concentration index incubated for 72 hrs in presence of Fluconazole by broth microdilution method; assay type: functional
Cryptococcus neoformans [21] = assay: Synergistic antifungal activity against Cryptococcus neoformans clinical isolate SH68 assessed as fractional inhibitory concentration index incubated for 72 hrs in presence of Fluconazole by broth microdilution method; assay type: functional
Cryptococcus neoformans [22] = assay: Antifungal activity against Cryptococcus neoformans clinical isolate 56992 assessed as fungal growth inhibition incubated for 72 hrs in presence of P163-0892 by broth microdilution method; assay type: functional
[23] = system: Cryptococcus deuterogattii; assay: Antifungal activity against Cryptococcus gattii WM178 infected in Wax moth larvae assessed as survival rate at 10 mg/kg measured after 9 days in presence of P163-0892 by Kaplan-Meier method; assay type: functional, Cryptococcus gattii species complex; conditions: WM178, 216 h, time 9 day
Cryptococcus neoformans [24] = assay: Synergistic antifungal activity against Cryptococcus neoformans clinical isolate HN2-40 assessed as fractional inhibitory concentration index incubated for 72 hrs in presence of P163-0892 by broth microdilution method; assay type: functional
Cryptococcus neoformans [25] = assay: Antifungal activity against Cryptococcus neoformans clinical isolate 443 assessed as fungal growth inhibition incubated for 72 hrs in presence of P163-0892 by broth microdilution method; assay type: functional
Cryptococcus neoformans [26] = assay: Antifungal activity against Cryptococcus neoformans clinical isolate HN17 assessed as fungal growth inhibition incubated for 72 hrs in presence of P163-0892 by broth microdilution method; assay type: functional
Cryptococcus neoformans [27] = assay: Synergistic antifungal activity against Cryptococcus neoformans clinical isolate SH68 assessed as fractional inhibitory concentration index incubated for 72 hrs in presence of P163-0892 by broth microdilution method; assay type: functional
Candida parapsilosis [28] = assay: Synergistic antifungal activity against Candida parapsilosis ATCC22019 assessed as fractional inhibitory concentration index incubated for 48 hrs in presence of P163-0892 by broth microdilution method; assay type: functional
Cryptococcus neoformans [29] = assay: Antifungal activity against Cryptococcus neoformans H99 assessed as fungal growth inhibition incubated for 72 hrs in presence of P163-0892 by broth microdilution method; assay type: functional
Cryptococcus neoformans [30] = assay: Antifungal activity against Cryptococcus neoformans clinical isolate HN1 assessed as fungal growth inhibition incubated for 72 hrs in presence of P163-0892 by broth microdilution method; assay type: functional
Cryptococcus neoformans [31] = assay: Antifungal activity against Cryptococcus neoformans clinical isolate HN20 assessed as fungal growth inhibition incubated for 72 hrs in presence of P163-0892 by broth microdilution method; assay type: functional
[32] = system: Cryptococcus deuterogattii; assay: Antifungal activity against Cryptococcus gattii WM178 assessed as fungal growth inhibition incubated for 72 hrs in presence of P163-0892 by broth microdilution method; assay type: functional, Cryptococcus gattii species complex
Cryptococcus neoformans [33] = assay: Synergistic antifungal activity against Cryptococcus neoformans clinical isolate 445 assessed as fractional inhibitory concentration index incubated for 72 hrs in presence of P163-0892 by broth microdilution method; assay type: functional
Cryptococcus neoformans [34] = assay: Synergistic antifungal activity against Cryptococcus neoformans clinical isolate HN19 assessed as fractional inhibitory concentration index incubated for 72 hrs in presence of P163-0892 by broth microdilution method; assay type: functional
Candida albicans [35] = assay: Synergistic antifungal activity against Candida albicans SC5314 assessed as fractional inhibitory concentration index incubated for 48 hrs in presence of P163-0892 by broth microdilution method; assay type: functional
Cryptococcus neoformans [36] = assay: Antifungal activity against Cryptococcus neoformans clinical isolate SH68 assessed as fungal growth inhibition incubated for 72 hrs in presence of P163-0892 by broth microdilution method; assay type: functional

CCCCNC(=O)c1c(O)c2sccc2n(Cc2ccccc2)c1=O
Cmax [1]: 2.97 ng/mL
fractional inhibitory concentration index (FICI) (Cryptococcus gattii [2]): 0.25
MIC (Cryptococcus gattii [3]): 0.0625 mg/L
selectivity ratio [4]: > 256
fractional inhibitory concentration index (FICI) (Pichia kudriavzevii): 0.563
AUC [5]: 0.749 µg·h/mL
IC50 [6]: 23.4 µM
fractional inhibitory concentration index (FICI) (Candida albicans [7]): 1.008
fractional inhibitory concentration index (FICI) (Cryptococcus neoformans [8]): 0.313
MIC (Nakaseomyces glabratus): 16 mg/L
Vdss [9]: 7.12 L/kg
MIC ([Candida] auris): 1 mg/L
MRT(t) [10]: 2.63 h
fractional inhibitory concentration index (FICI) (Cryptococcus neoformans [11]): 0.375
MIC (Cryptococcus neoformans [12]): 0.0313 mg/L
Activity (Cryptococcus neoformans [13]): Active
MIC (Cryptococcus neoformans [14]): 0.0625 mg/L
t1/2 [15]: 7.61 h
IC50 at 24 h [16]: > 256 mg/L
survival at 10 mg/kg (Cryptococcus neoformans [17]): 65%
fractional inhibitory concentration index (FICI) (Cryptococcus neoformans [18]): 0.188
fractional inhibitory concentration index (FICI) (Candida parapsilosis [19]): 0.625
fractional inhibitory concentration index (FICI) (Cryptococcus neoformans [20]): 0.188
fractional inhibitory concentration index (FICI) (Cryptococcus neoformans [21]): 0.25

OC(Cn1cncn1)(Cn1cncn1)c1ccc(F)cc1F [FLUCONAZOLE]
MIC (Cryptococcus neoformans [22]): 0.25 mg/L
survival at 10 mg/kg [23]: 70%
fractional inhibitory concentration index (FICI) (Cryptococcus neoformans [24]): 0.188
MIC (Cryptococcus neoformans [25]): 1 mg/L
MIC (Cryptococcus neoformans [26]): 0.5 mg/L
fractional inhibitory concentration index (FICI) (Cryptococcus neoformans [27]): 0.25
fractional inhibitory concentration index (FICI) (Candida parapsilosis [28]): 0.625
MIC (Cryptococcus neoformans [29]): 2 mg/L
MIC (Cryptococcus neoformans [30]): 0.125 mg/L
MIC (Cryptococcus neoformans [31]): 0.0625 mg/L
MIC [32]: 0.5 mg/L
fractional inhibitory concentration index (FICI) (Cryptococcus neoformans [33]): 0.375
fractional inhibitory concentration index (FICI) (Cryptococcus neoformans [34]): 0.281
fractional inhibitory concentration index (FICI) (Candida albicans [35]): 1.008
MIC (Cryptococcus neoformans [36]): 1 mg/L
